The source of these data is PubChem BioAssay (NCI).

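Grown in 96-well plates, cells were treated for 48 hours with each compound at five concentrations. Insufficient inhibition: endpoint recorded as highest concentration tested. Abbreviation: GI50, concentration required for 50% inhibition of growth. TGI: concentration producing complete growth inhibition.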 Some results are limits rather than exact numbers.

Among the test systems are KM12 colon; HT29 colon; SF-539 CNS; BT-549 breast; SF-268 CNS; OVCAR-5 ovarian; PC-3 prostate; HL-60(TB) leukemia; SK-MEL-5 melanoma; MALME-3M melanoma.
What all share (assay): growth of human tumour cells (NCI), 48 h

As for `CC(=O)c1c[nH]c2ccc(-c3ccnc(Nc4ccc(NC(=O)C5CCCC5)c(CN5CCOCC5)c4)n3)cc12`, the GI50 was 0.0258 µM in the assay with KM12 colon; 0.0226 µM with HT29 colon; 0.0229 µM in the assay on SF-539 CNS; 0.0328 µM with BT-549 breast; 0.033 µM with SF-268 CNS; 0.0296 µM with OVCAR-5 ovarian. Also, the GI50 is 0.0325 µM with PC-3 prostate, 0.0253 µM with HL-60(TB) leukemia, 0.0246 µM in the assay on SK-MEL-5 melanoma and 0.0431 µM with MALME-3M melanoma. For the same molecule, the TGI in the assay with KM12 colon was found to be 0.141 µM; with HT29 colon, 2.25 µM; with SF-539 CNS it was 0.0681 µM; in the assay on BT-549 breast, 0.904 µM; in the assay on SF-268 CNS, 0.159 µM; with OVCAR-5 ovarian, 0.222 µM. For the same molecule, the TGI in the assay on PC-3 prostate turned out to be 1.05 µM; in the assay on HL-60(TB) leukemia it was 0.0727 µM; with SK-MEL-5 melanoma, 0.0685 µM; in the assay with MALME-3M melanoma, 0.151 µM.
Regarding `O=C1NC(=O)C(=Cc2cn(Cc3ccccc3)c3ccccc23)C(=O)N1`, the GI50 in the assay on KM12 colon is 15.9 µM; with HT29 colon, 23.5 µM; in the assay on SF-539 CNS, 34.3 µM; with BT-549 breast, 15.4 µM; with SF-268 CNS, 15.8 µM; in the assay on OVCAR-5 ovarian, 0.332 µM. Further, the GI50 in the assay with PC-3 prostate is 11.4 µM; in the assay on HL-60(TB) leukemia, 21.4 µM; in the assay with SK-MEL-5 melanoma, 11.3 µM; with MALME-3M melanoma, 18.1 µM. Besides, the TGI in the assay with KM12 colon was 31.5 µM; in the assay with HT29 colon, greater than 60.8 µM; in the assay on SF-539 CNS, greater than 100 µM; in the assay with BT-549 breast, 50.1 µM; in the assay with SF-268 CNS, 32.9 µM; with OVCAR-5 ovarian it was 2.15 µM. The TGI in the assay with PC-3 prostate is 30.8 µM; in the assay with HL-60(TB) leukemia, 81.6 µM; with SK-MEL-5 melanoma it was greater than 55.5 µM; in the assay with MALME-3M melanoma, 45.7 µM.
On to `CN(C)CCN1C(=O)c2cccc3c(/C=C/CN4C(=O)c5cccc6cccc(c56)C4=O)ccc(c23)C1=O`, for which the GI50 was greater than 100 µM with KM12 colon; greater than 100 µM with HT29 colon; 6.33 µM in the assay with SF-539 CNS; 43.5 µM with BT-549 breast; 51.5 µM in the assay with SF-268 CNS; 35.5 µM in the assay on OVCAR-5 ovarian. For the same molecule, the GI50 with PC-3 prostate is greater than 100 µM; with HL-60(TB) leukemia, greater than 100 µM; in the assay on SK-MEL-5 melanoma it was greater than 100 µM; in the assay on MALME-3M melanoma, 4.06 µM. Further, the TGI in the assay on KM12 colon is greater than 100 µM; in the assay with HT29 colon, greater than 100 µM; with SF-539 CNS it was 19.5 µM; in the assay with BT-549 breast, greater than 100 µM; in the assay with SF-268 CNS, greater than 100 µM; in the assay with OVCAR-5 ovarian, greater than 100 µM. The TGI was greater than 100 µM in the assay on PC-3 prostate, greater than 100 µM in the assay on HL-60(TB) leukemia, greater than 100 µM in the assay with SK-MEL-5 melanoma and 30.5 µM in the assay on MALME-3M melanoma.
On to `COC1=C(OC)C(=O)C(C/C=C(\C)CC/C=C(\C)CC/C=C(\C)CC/C=C(\C)CC/C=C(\C)CC/C=C(\C)CC/C=C(\C)CC/C=C(\C)CC/C=C(\C)CCC=C(C)C)=C(C)C1=O`, for which the GI50 with KM12 colon, in the assay on HT29 colon, in the assay on SF-539 CNS, in the assay with BT-549 breast, with SF-268 CNS and in the assay with OVCAR-5 ovarian was greater than 100 µM in each case. In addition, the GI50 with PC-3 prostate, with HL-60(TB) leukemia, in the assay on SK-MEL-5 melanoma and with MALME-3M melanoma was greater than 100 µM each time. Moreover, the TGI in the assay on KM12 colon, in the assay on HT29 colon, in the assay on SF-539 CNS, in the assay with BT-549 breast, in the assay on SF-268 CNS and with OVCAR-5 ovarian was greater than 100 µM in each case. Further, the TGI in the assay on PC-3 prostate, with HL-60(TB) leukemia, with SK-MEL-5 melanoma and in the assay with MALME-3M melanoma was greater than 100 µM in each case.
In the case of `COc1ccc2nc(C)cc(Sc3nc4ccccc4s3)c2c1`, the GI50 was 1.9 µM with KM12 colon; 1.89 µM in the assay with HT29 colon; 1.73 µM with SF-539 CNS; 1.28 µM in the assay on BT-549 breast; 2.02 µM in the assay with SF-268 CNS; 1.79 µM in the assay with OVCAR-5 ovarian. For the same molecule, the GI50 was 0.288 µM in the assay on PC-3 prostate, 0.533 µM in the assay with HL-60(TB) leukemia, 2.88 µM in the assay on SK-MEL-5 melanoma and 0.426 µM in the assay on MALME-3M melanoma. Further, the TGI in the assay on KM12 colon was determined as 5.07 µM; in the assay with HT29 colon it was 7.71 µM; with SF-539 CNS it was 4.04 µM; with BT-549 breast, 4.45 µM; in the assay on SF-268 CNS, 5.51 µM; with OVCAR-5 ovarian, 8.19 µM. The TGI came out at 3 µM in the assay with PC-3 prostate, 2.63 µM in the assay on HL-60(TB) leukemia, 13.5 µM in the assay with SK-MEL-5 melanoma and 11.9 µM in the assay on MALME-3M melanoma.
Consider `COc1c(OC)c(OC)c2c(=O)cc(-c3ccc(OC(C)C)cc3)oc2c1OC`, for which the TGI in the assay with KM12 colon was greater than 100 µM; in the assay on HT29 colon, greater than 49.4 µM; with SF-539 CNS, 51.2 µM; in the assay on BT-549 breast, greater than 49.9 µM; in the assay on SF-268 CNS, greater than 51.8 µM; in the assay on OVCAR-5 ovarian, greater than 51.9 µM. Further, the TGI is greater than 100 µM in the assay with PC-3 prostate, 13 µM in the assay with HL-60(TB) leukemia, 25.5 µM in the assay on SK-MEL-5 melanoma and greater than 50.3 µM in the assay on MALME-3M melanoma.
With `Cc1nn(C)c2ncnc(N/N=C/c3cccc(O)c3O)c12`, the GI50 is 0.392 µM in the assay with KM12 colon; 3.94 µM with HT29 colon; 0.371 µM with SF-539 CNS; 0.602 µM with BT-549 breast; 0.342 µM with SF-268 CNS; 4.06 µM in the assay on OVCAR-5 ovarian. For the same molecule, the GI50 with PC-3 prostate is 0.545 µM; with HL-60(TB) leukemia, 0.322 µM; in the assay with SK-MEL-5 melanoma it was 0.433 µM; in the assay with MALME-3M melanoma, 0.52 µM. In addition, the TGI in the assay on KM12 colon is greater than 100 µM; with HT29 colon, greater than 100 µM; in the assay with SF-539 CNS, 7.1 µM; in the assay on BT-549 breast, greater than 100 µM; in the assay on SF-268 CNS, 20.4 µM; with OVCAR-5 ovarian, greater than 100 µM. Moreover, the TGI in the assay on PC-3 prostate is greater than 100 µM; with HL-60(TB) leukemia, 1.43 µM; in the assay on SK-MEL-5 melanoma it was 2.31 µM; with MALME-3M melanoma, 4.7 µM.
`CCCCCCCCCCCNC=O`: the TGI was greater than 100 µM in the assay with KM12 colon; greater than 100 µM with HT29 colon; greater than 100 µM in the assay with SF-539 CNS; 57.5 µM with BT-549 breast; greater than 100 µM in the assay on SF-268 CNS; greater than 100 µM with OVCAR-5 ovarian. Moreover, the TGI was 66.9 µM in the assay with PC-3 prostate, 39.7 µM with HL-60(TB) leukemia, 92 µM in the assay on SK-MEL-5 melanoma and greater than 100 µM in the assay with MALME-3M melanoma.
